Assay results as given in patent US20040006777A1, “Human lymphoid protein tyrosine phosphatases” (HSC Research and Development Limited Partnership, priority 1998, published 2004).

Legend:
Cbl = details: Jurkat cells, pervanadate treatment; cited from earlier work
Lyp1 = biological target: T1, Lyp1 (Homo sapiens, UniProt Q9Y2R2); experiment: In vitro phosphatase assay with 33P labelled Raytide peptide and Lyp immunoprecipitates; type: biochemical; details: data not shown
T1 construct: made in house; host or cells: COS cells (transient transfection, pcDNA3); anti-T7 immunoprecipitate
T1 sequence (Q9Y2R2 1-807): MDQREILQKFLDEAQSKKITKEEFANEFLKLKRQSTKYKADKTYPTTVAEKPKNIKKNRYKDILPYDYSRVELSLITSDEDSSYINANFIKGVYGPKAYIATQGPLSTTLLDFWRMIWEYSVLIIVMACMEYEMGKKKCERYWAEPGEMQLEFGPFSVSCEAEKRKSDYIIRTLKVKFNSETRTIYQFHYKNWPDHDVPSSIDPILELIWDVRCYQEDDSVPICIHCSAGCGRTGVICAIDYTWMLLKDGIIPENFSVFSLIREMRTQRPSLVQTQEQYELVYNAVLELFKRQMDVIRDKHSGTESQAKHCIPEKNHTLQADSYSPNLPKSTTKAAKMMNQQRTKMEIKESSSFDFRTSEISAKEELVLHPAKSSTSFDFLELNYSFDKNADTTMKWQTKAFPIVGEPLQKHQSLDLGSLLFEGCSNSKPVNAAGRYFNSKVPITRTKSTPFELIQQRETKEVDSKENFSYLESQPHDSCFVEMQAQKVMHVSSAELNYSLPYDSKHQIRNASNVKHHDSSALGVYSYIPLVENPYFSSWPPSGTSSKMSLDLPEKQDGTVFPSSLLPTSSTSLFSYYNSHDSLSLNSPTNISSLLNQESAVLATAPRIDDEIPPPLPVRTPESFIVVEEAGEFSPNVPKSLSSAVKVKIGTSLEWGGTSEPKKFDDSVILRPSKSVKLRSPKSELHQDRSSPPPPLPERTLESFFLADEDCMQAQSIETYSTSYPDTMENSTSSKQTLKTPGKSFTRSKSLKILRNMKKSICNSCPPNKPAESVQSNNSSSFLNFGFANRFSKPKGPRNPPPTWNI
Procedure: Anti-Lyp immunoprecipitates from untransfected and pcDNA3-Lyp1 transfected cells were prepared in pervanadate free lysis buffer and incubated with ^33P labelled substrate Raytide. At the indicated time points reactions were stopped by the addition of charcoal and the free ^33P released from the peptide and now present in the supernatant measured by liquid scintillation counting.
Raytide peptide was ^33P labelled on tyrosine residues in vitro using the tyrosine kinase p60src and purified on phosphocellulose paper. Release of ^33P over time was measured in the phosphatase assay and compared to controls from untransfected cells.
Specifically, the synthetic peptide Raytide was phosphorylated according to the method described by Guan et al., (1994)(54), on tyrosine by p60src (Oncogene Science) as follows: 10 μg Raytide in 50 mM Hepes pH 7.5, 10 mM MgCl2, 0.067% mercaptoethanol, 0.05 mM ATP was incubated with 300 μCiγ^33P ATP per ml and 2 μg p60src in a final volume of 30 μl. The reaction was allowed to proceed for 30 minutes at 30° C. and was stopped by the addition of […] 10% phosphoric acid.
The sample was spotted onto two 1×1 cm sheets of P81 phophocellulose paper and extensively washed with 0.5% phosphoric acid. […]
The phosphorylated substrate was used in the phosphatase assay as described by Stueli et al (1989)(54). […] After centrifugation the free ^33P in the supernatant was measured.

inhibition of Lyp tyrosine phosphatase activity (Lyp1): completely inhibited
Substance: pervanadate [reference compound]
phosphorylation of Cbl (Cbl): marked increase
